This note sets out measurements from article PMC10054553, “Development of the First ^18F-Labeled Radiohybrid-Based Minigastrin Derivative with High Target Affinity and Tumor Accumulation by Substitution of the Chelating Moiety” (Pharmaceutics, 2023).

A short description of the series: Stability studies in human serum. Format: in vitro ADME. The note with it: 37 °C; for SiOH-containing analog (%): 24 h, n = 3, analog with hydrolyzed SiFA moiety; for remaining at 24 h, 5 µM: human, n = 3, read-out: Intact peptide (%). How it is done: In vitro stability studies in human serum after incubation at 37 °C for 24 h were performed as described in the Supplemental Material.
Stability Studies in Human Serum. The 177Lu- as well as 67Ga-labeled CCK-2R ligands (1 nmol,
approx. 5 MBq) were incubated for 24 h in human serum (200 μL) at 37 °C. After incubation, ice-cold
EtOH (125 μL) and MeCN (375 μL) were added and the suspension was centrifuged for 5 min at
5000 rpm. Then, the supernatant was transferred into new vials and centrifuged for another 5 min at
5000 rpm. After separating the precipitate from the solution, the stability of the ligands was determined

Each structure is given as a SMILES string.

Regarding `CCCC[C@H](NC(=O)[C@H](Cc1c[nH]c2ccccc12)NC(=O)CNC(=O)[C@H](Cc1ccc(O)cc1)NC(=O)[C@H](C)NC(=O)CC[C@@H](NC(=O)CC[C@@H](NC(=O)CC[C@@H](NC(=O)CC[C@@H](NC(=O)CC[C@@H](NC(=O)CC[C@@H](NC(=O)[C@@H](CNC(=O)c1ccc([Si](F)(C(C)(C)C)C(C)(C)C)cc1)NC(=O)CN1CCN(CC(=O)O)CCN(CC(=O)O)CCN(CC(=O)O)CC1)C(=O)O)C(=O)O)C(=O)O)C(=O)O)C(=O)O)C(=O)O)C(=O)N[C@@H](CC(=O)O)C(=O)N[C@@H](Cc1ccccc1)C(N)=O` [[^67Ga]Ga-DOTA-rhCCK-16, metal not drawn], the remaining at 24 h, 5 µM was found to be 39.6 ± 7.9%. Further, the “SiOH-containing analog (%)” value (listed as [67Ga]Ga-DOTA-rhCCK-16) is 56.5 ± 8.0%.
In the case of `CCCC[C@H](NC(=O)[C@H](Cc1c[nH]c2ccccc12)NC(=O)CNC(=O)[C@H](Cc1ccc(O)cc1)NC(=O)[C@H](C)NC(=O)CC[C@@H](NC(=O)CC[C@@H](NC(=O)CC[C@@H](NC(=O)CC[C@@H](NC(=O)CC[C@@H](NC(=O)CC[C@@H](NC(=O)CC[C@@H](NC(=O)CC[C@@H](NC(=O)[C@@H](CNC(=O)c1ccc([Si](F)(C(C)(C)C)C(C)(C)C)cc1)NC(=O)CN1CCN(CC(=O)O)CCN(CC(=O)O)CCN(CC(=O)O)CC1)C(=O)O)C(=O)O)C(=O)O)C(=O)O)C(=O)O)C(=O)O)C(=O)O)C(=O)O)C(=O)N[C@@H](CC(=O)O)C(=O)N[C@@H](Cc1ccccc1)C(N)=O` [[^67Ga]Ga-DOTA-rhCCK-18, metal not drawn], the “SiOH-containing analog (%)” value worked out at 53.6 ± 6.6% and the remaining at 24 h, 5 µM came out at 43.7 ± 6.9%.
